Data reported in patent US20100331183A1, “AGENT FOR IMPROVING GOOD RICE SEEDLING GROWTH” (COSMO OIL CO., LTD, priority 2008, published 2010).

Tests used:
rice seedlings [1] = assay: Effect of improving the growth of rice seedlings - 1 (soil irrigation in seedling box, harvest 33 days from sowing); assay type: in vivo, rice (koshihikari variety)
Experimental: 450 g/pot of soil was placed in a seedling box (the area was 1/120,000×10 a). The soil used was a purchased volcanic ash soil (andosol). […] Fertilizer application was carried out using a liquid fertilizer, Hyponica, at a rate of 3 kg-N/10 a. […] After 29 days from sowing, additional fertilizer application was carried out using a liquid fertilizer, Hyponica, at a rate of 3 kg-N/10 a. After 33 days from sowing, the plant bodies were harvested, and the fresh weight (roots) and the tillering number were measured.

rice seedlings [2] = assay: Effect of improving rice seedling growth - 2 (soil irrigation in seedling box, harvest 22 days from sowing); assay type: in vivo; settings: for SPAD value (chlorophyll content) / Stem thickness: 5-aminolevulinic acid hydrochloride 600 mg/10 a and/or inabenfide 300 g/10 a, n = 15 to 17
Experimental: 450 g/pot of soil was placed in a seedling box (the area was 1/120,000×10 a). The soil used was a purchased volcanic ash soil (andosol). […] Fertilizer application was carried out using a liquid fertilizer, Hyponica, at a rate of 5 kg-N/10 a. […] The results for the fresh weight of roots and the tillering number under various conditions are presented in Table 6, and the results for the stem thickness and the chlorophyll content (SPAD value) under various conditions are presented in Table 7.

rice seedlings [3] = assay: Verification of effect: treated seedlings transplanted into paddy field pot, harvest after three weeks; assay type: in vivo; settings: 3 weeks after transplantation into paddy field pot; treated upon raising seedlings: 5-aminolevulinic acid hydrochloride 120 mg/10a and/or inabenfide 1200 g/10a; n = 3
Experimental: 450 g/pot of soil was placed in a seedling box (the area was 1/120,000×10 a). The soil used was a purchased volcanic ash soil (andosol). Rice seeds which had been subjected to brine grading using a brine having a specific gravity of 1.13, and had been germinated, were sowed at a rate of 15 seeds/pot, and the seeds were covered with soil at a depth of 1 to 2 cm (50 g/pot). Fertilizer application was carried out using a liquid fertilizer, Hyponica, at a rate of 5 kg-N/10 a. For each of the test zones (n=4), the soil was irrigated with combinations of inabenfide in an amount of treatment of 1,200 or 300 g/10 a, and 5-aminolevulinic acid hydrochloride in an amount of treatment of 600, 200 or 120 mg/10 a. After 22 days from sowing, the plant bodies were harvested, and the fresh weight (roots), the tillering number, the stem thickness and the chlorophyll content (SPAD value) were measured. The results for the fresh weight of roots and the tillering number under various conditions are presented in Table 6, and the results for the stem thickness and the chlorophyll content (SPAD value) under various conditions are presented in Table 7.
Seedlings were raised in the same manner as in Example 2. In regard to the treatment concentration upon raising seedlings, the treatment was carried out using 5-aminolevulinic acid hydrochloride at a concentration of 120 (mg/10 a) and inabenfide at a concentration of 1,200 (g/10 a). After the seedlings were raised, the roots of four seedlings were evenly cut to 2 cm, and the seedlings were transplanted into a pot simulating the state of paddy field. After three weeks from the transplantation into the pot simulating the state of paddy field, the plant bodies were harvested, and the dry weights of the aerial part and the root part, and the tillering number were measured. The various treatment conditions employed upon raising the seedlings, and the measurement values obtained after 3 weeks from the transplantation into paddy field pot are presented in Table 8.

[4] = 5-aminolevulinic acid hydrochloride 200 mg/10 a and/or trinexapac-ethyl 1.25 g/10 a
[5] = 5-aminolevulinic acid hydrochloride 200 mg/10 a and/or inabenfide 1200 g/10 a
[6] = 5-aminolevulinic acid hydrochloride 200 mg/10 a and/or paclobutrazole 90 g/10 a
[7] = 5-aminolevulinic acid hydrochloride 200 mg/10 a and/or prohexadione calcium salt 15 g/10 a
[8] = 5-aminolevulinic acid hydrochloride 200 mg/10 a and/or uniconazole P 30 g/10 a
[9] = 5-aminolevulinic acid hydrochloride 200 mg/10 a and/or uniconazole P 30 g/10 a, n=4 zones
[10] = 5-aminolevulinic acid hydrochloride 120 mg/10 a, inabenfide 0
[11] = 5-aminolevulinic acid hydrochloride 200 mg/10 a, inabenfide 0
[12] = 5-aminolevulinic acid hydrochloride 600 mg/10 a, inabenfide 0
[13] = inabenfide 300 g/10 a, 5-aminolevulinic acid hydrochloride 0
[14] = inabenfide 1200 g/10 a, 5-aminolevulinic acid hydrochloride 0

Row | SMILES | Average tillering number per plant body (rice seedlings [1]; [4]) | Fresh weight of roots (rice seedlings [1]; [4]) [g] | Average tillering number per plant body (rice seedlings [1]; [5]) | Fresh weight of roots (rice seedlings [1]; [5]) [g] | Average tillering number per plant body (rice seedlings [1]; [6]) | Fresh weight of roots (rice seedlings [1]; [6]) [g] | Fresh weight of roots (rice seedlings [1]; [7]) [g] | Average tillering number per plant body (rice seedlings [1]; [8]) | Fresh weight of roots (rice seedlings [1]; [9]) [g] | SPAD value (chlorophyll content) (rice seedlings [2]) | Stem thickness (rice seedlings [2]) [cm] | Average tillering number per plant body (rice seedlings [3]) | Degree of sturdiness (dry weight/height for shoots) (rice seedlings [3]) [g/cm] | Dry weight of roots (rice seedlings [3]) [g] | Dry weight of shoots (rice seedlings [3]) [g] | Fresh weight of shoots (rice seedlings [3]) [g] | further results
1 | CCOC(=O)C1CC(=O)C(=C(O)C2CC2)C(=O)C1 (stereo not drawn) [Trinexapac-ethyl, ethyl=4-cyclopropyl-α-hydroxymethylene)-3,5-dioxocyclohexane carboxylate] | 0.00 | 0.23 | – | – | – | – | – | – | – | – | – | – | – | – | – | – | –
2 | Cl.NCC(=O)CCC(=O)O [5-aminolevulinic acid hydrochloride] | 0.00 | 0.29 | 0.00 | 0.29 | 0.00 | 0.29 | 0.29 | 0.00 | 0.29 | 28.70 | 0.429 | 6.7 | 0.052 | 1.0 | 3.2 | 14.1 | Average tillering number per plant body (rice seedlings [2]; [10]): 0.03; Fresh weight of roots (rice seedlings [2]; [10]): 0.35 g; Average tillering number per plant body (rice seedlings [2]; [11]): 0.01; Fresh weight of roots (rice seedlings [2]; [11]): 0.36 g; Average tillering number per plant body (rice seedlings [2]; [12]): 0.00; Fresh weight of roots (rice seedlings [2]; [12]): 0.35 g
3 | CC(C)(C)[C@H](O)/C(=C\c1ccc(Cl)cc1)n1cncn1 [Uniconazole P, (E)-(S)-1-(4-chlorophenyl)-4,4-dimethyl-2-(1H-1,2,4-triazol-1-yl)pent-1-en-3-ol] | – | – | – | – | – | – | – | 0.86 | 0.28 | – | – | – | – | – | – | – | –
4 | O=C(Nc1ccc(Cl)cc1C(O)c1ccccc1)c1ccncc1 (stereo not drawn) [Inabenfide] | – | – | 0.19 | 0.34 | – | – | – | – | – | 29.23 | 0.415 | 8.0 | 0.060 | 1.1 | 3.6 | 15.8 | Average tillering number per plant body (rice seedlings [2]; [13]): 0.11; Fresh weight of roots (rice seedlings [2]; [13]): 0.35 g; Average tillering number per plant body (rice seedlings [2]; [14]): 0.41; Fresh weight of roots (rice seedlings [2]; [14]): 0.35 g
5 | CC(C)(C)[C@@H](O)[C@@H](Cc1ccc(Cl)cc1)n1cncn1 (racemic) [Paclobutrazole, (2RS,3RS)-1-(4-chlorophenyl)-4,4-dimethyl-2-(1H-1,2,4-triazol-1-yl)pentan-3-ol] | – | – | – | – | 0.80 | 0.29 | – | – | – | – | – | – | – | – | – | – | –
6 | CCC(=O)C1=C([O-])CC(C(=O)[O-])CC1=O.[Ca+2] (stereo not drawn) [Prohexadione calcium salt, calcium 3-oxido-5-oxo-4-propionyl-3-cyclohexene carboxylate] | – | – | – | – | – | – | 0.32 | – | – | – | – | – | – | – | – | – | –
